Laboratory results from PMC11251166 (Nature Communications, 2024).

How the values were obtained:
MavL40-404 = biological target: T1, MavL40-404 (Legionella pneumophila, UniProt Q5ZSJ1)
T1 construct: gene lpg2526

LnaB = biological target: T2, LnaB (Legionella pneumophila, UniProt Q5ZSJ0); assay: biochemical
T2 construct: gene lpg2527
T2 sequence (Q5ZSJ0 1-558 limits assumed): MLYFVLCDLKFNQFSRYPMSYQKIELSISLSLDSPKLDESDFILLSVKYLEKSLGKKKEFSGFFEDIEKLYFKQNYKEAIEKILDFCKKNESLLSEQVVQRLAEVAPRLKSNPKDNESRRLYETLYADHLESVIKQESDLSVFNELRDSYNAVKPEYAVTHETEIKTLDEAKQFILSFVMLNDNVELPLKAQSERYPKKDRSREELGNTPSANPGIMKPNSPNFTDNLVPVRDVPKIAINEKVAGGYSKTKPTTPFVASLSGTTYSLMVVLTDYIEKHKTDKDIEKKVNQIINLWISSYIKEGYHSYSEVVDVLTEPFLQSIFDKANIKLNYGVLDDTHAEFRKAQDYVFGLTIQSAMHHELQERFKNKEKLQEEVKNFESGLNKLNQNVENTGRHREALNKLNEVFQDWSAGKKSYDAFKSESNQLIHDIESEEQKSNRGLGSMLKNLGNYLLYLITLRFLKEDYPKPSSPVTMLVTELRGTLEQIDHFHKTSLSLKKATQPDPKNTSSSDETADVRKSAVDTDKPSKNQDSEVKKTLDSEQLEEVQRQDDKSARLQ

T1 sequence (Q5ZSJ1 40-404 limits assumed): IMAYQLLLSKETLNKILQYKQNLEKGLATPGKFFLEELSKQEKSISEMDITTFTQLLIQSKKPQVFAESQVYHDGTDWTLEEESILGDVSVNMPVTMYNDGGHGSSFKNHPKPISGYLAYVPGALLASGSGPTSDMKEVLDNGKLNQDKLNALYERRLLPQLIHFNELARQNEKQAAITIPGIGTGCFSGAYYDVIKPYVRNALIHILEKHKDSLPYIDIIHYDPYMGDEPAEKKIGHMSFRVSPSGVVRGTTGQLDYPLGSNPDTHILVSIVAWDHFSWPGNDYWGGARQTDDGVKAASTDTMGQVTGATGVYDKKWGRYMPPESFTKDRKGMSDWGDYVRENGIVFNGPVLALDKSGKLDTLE

| Structure (SMILES) | Kd (MavL40-404) [µM] | Kd (LnaB) [µM] |
| --- | --- | --- |
| Nc1ncnc2c1ncn2[C@@H]1O[C@H](COP(=O)(O)OP(=O)(O)OC[C@H]2OC(O)[C@H](O)[C@@H]2O)[C@@H](O)[C@H]1O (some centres unmarked) [ADPR] | 25 ± 3.24 |  |
| Nc1ncnc2c1ncn2[C@@H]1O[C@H](COP(=O)(O)OP(=O)(O)OP(=O)(O)O)[C@@H](O)[C@H]1O [ATP] |  | 15.4 ± 4.85 |
